# According to PubChem BioAssay (NCI):
# Several values for one entry are separate records, joined by “and”; a condition that tells them apart may be missing. Identical values can stand only once.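 Following 48 hours of exposure in 96-well plates, responses at five concentrations were used to interpolate endpoints linearly. GI50 is the concentration that inhibits growth by half. TGI marks complete inhibition of growth.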
# How the values were obtained:
# Test in all cases: NCI tumour cell line growth inhibition, 48 h
# MCF7 breast = tested on: MCF7 breast
# NCI/ADR-RES ovarian = tested on: NCI/ADR-RES ovarian
# T-47D breast = tested on: T-47D breast
# PC-3 prostate = tested on: PC-3 prostate
# MDA-MB-231 breast = tested on: MDA-MB-231 breast
Compound,TGI (MCF7 breast),TGI (NCI/ADR-RES ovarian),TGI (T-47D breast),TGI (PC-3 prostate),TGI (MDA-MB-231 breast),GI50 (MCF7 breast),GI50 (NCI/ADR-RES ovarian),GI50 (T-47D breast),GI50 (PC-3 prostate),GI50 (MDA-MB-231 breast)
COC(=O)/C=C/c1cc2c(cc1-c1c(C(=O)O)cc(OC)c(OC)c1OC)OCO2,> 10 µM,> 10 µM,> 10 µM,> 10 µM,> 10 µM,,,,,
C[N+]1=C(/C=C\C=C\c2ccccc2)C(C)(C)c2ccccc21,11 µM,33.9 µM,5.36 µM,14.9 µM,7.52 µM,2.48 µM,9.45 µM,0.966 µM,3.54 µM,2.36 µM
CCN1CCN(CC(=O)N2c3cccc4cccc(c34)N(C(=O)CN3CCN(CC)CC3)C2c2cn(-c3ccccc3)nc2-c2cccc([N+](=O)[O-])c2)CC1,3.24 µM,4.16 µM,3.7 µM,3.14 µM,2.88 µM,1.62 µM,1.98 µM,1.66 µM,1.48 µM,1.42 µM
Cc1cc(N2CCOCC2)cc2[nH]c(-c3c(NC[C@@H](O)c4cccc(Cl)c4)cc[nH]c3=O)nc12,15.8 µM,12.3 µM,37.8 µM,> 100 µM,5.37 µM,0.233 µM,2.83 µM,4.17 µM,3.7 µM,1.22 µM
O=C(O)C1CC(O)CN1 (stereo unspecified),> 100 µM,> 100 µM,> 100 µM,> 100 µM,> 100 µM,,,,,
Cc1ccc(O)c(NC(=O)c2ccc(CNc3ccnc(C(F)(F)F)c3)cc2)c1,38.9 µM,37.8 µM,17.7 µM,38 µM,47.2 µM,4.06 µM,4.68 µM,1.74 µM,9.5 µM,3.36 µM
CN(Cc1cc(C(C)(C)C)cc(Br)c1O)Cc1cc(C(C)(C)C)cc(Br)c1O,10.7 µM,11.1 µM,12.3 µM,9.32 µM,6.91 µM,,,,,
COc1cc(Nc2ncc(F)c(Nc3ccc4c(n3)N(COP(=O)(O)O)C(=O)C(C)(C)O4)n2)cc(OC)c1OC,22.6 µM and > 10 µM,17.2 µM and > 10 µM,26 µM and > 10 µM,22.6 µM and > 10 µM,5.07 µM and 7.69 µM,3.02 µM and 3.32 µM,2.99 µM and 3.01 µM,2.92 µM and 1.24 µM,2.1 µM and 4.17 µM,1.67 µM and 1.35 µM
O=C(/C=C/c1ccc(C(F)(F)F)cc1)c1ccc(Nc2nc(NCCO)nc(Nc3ccc(Cl)cc3)n2)cc1,5.56 µM,26 µM,26.6 µM,15 µM,16.1 µM,1.49 µM,5.58 µM,3.4 µM,2.99 µM,4.21 µM
Cc1ncc(C(=O)Nc2ccc(CN3CCN(C)CC3)c(C(F)(F)F)c2)cc1C#Cc1cnc(N)cc1C#N,4.48 µM,5.24 µM,> 16.7 µM,3.48 µM,1.92 µM,1.69 µM,2.12 µM,> 16.7 µM,0.71 µM,0.222 µM
CCN(CC)c1ccc(C(=O)c2ccc(N(CC)CC)cc2)cc1,> 74.4 µM,1.89 µM,> 100 µM,> 100 µM,28.2 µM,0.416 µM,0.355 µM,0.789 µM,0.452 µM,1.23 µM
Oc1ccc2oc3ncc(Br)c(-c4ccccc4)c3c2c1,> 100 µM,> 100 µM,,> 100 µM,,> 100 µM,> 100 µM,,> 100 µM,
Cc1cnc(C(=O)NNc2nc3sc4c(c3c(=O)n2C)C(C)CCC4)cn1 (stereo unspecified),1.7 µM,10.8 µM,5.68 µM,11.2 µM,4.04 µM,0.29 µM,0.392 µM,0.416 µM,0.465 µM,0.335 µM
Cn1cc(-c2ccc(-c3ccc(C4=NC5(CC5)C(=O)N4C[C@@H]4CCN(C(=O)C5CC5)C4)cc3)cc2)cn1,> 100 µM,> 100 µM,> 100 µM,> 100 µM,37.3 µM,1.12 µM,10.4 µM,13.6 µM,22.8 µM,11.2 µM
CN(C)c1ccc(/C=C/c2cc[n+](C)c(/C=C/c3ccc(N(C)C)cc3)c2)cc1,1.13 µM,18.7 µM,1.3 µM,1.26 µM,1.28 µM,0.272 µM,3.81 µM,0.152 µM,0.248 µM,0.322 µM
COc1cc2c(cc1OC)C13CCN4CC5CCOC6CC(=O)N2C1C6C5CC43 (stereo unspecified),> 100 µM,> 100 µM,> 100 µM,> 100 µM,> 100 µM,,,,,
CN(C)CCNC(=O)c1ccc(NC(=O)c2nc([N+](=O)[O-])cn2C)cc1,> 100 µM,> 100 µM,> 100 µM,> 100 µM,> 100 µM,,,,,
